From patent US20180177805A1, “Intravitreal Lysine Acetylsalicylate As Treatment For Diabetic Retinopathy” (Fundación Para El Fomento De La Investigación Sani taria Y …, priority 2015, published 2018)

Key:
retina = tested on: retina; parameters: species or system Wistar rat; conditions: rat, in vivo
Description: For the intravitreal injection, the animals were anesthetized with a mixture in a proportion of 1:1 of xylazine hydrochloride (4 mg/kg) and ketamine hydrochloride (10 mg/kg). Under mydriasis with 0.5% tropicamide, the intravitreal injection of the lysine acetylsalicylate solution was carried out under a surgical microscope with a micro injection syringe (Hamilton Co., Reno, Nev.) and a 32 gauge needle at 1 millimeter from the temporal limbus. Only half the diabetic animals were treated with the intravitreal solution, the rest of the animals were left to develop diabetic retinopathy naturally. […] Summary of the organization of the experimental test: • Initially, the animals were evaluated prior to including them in the experimental test to discard those with defects or basic ocular changes. • The inducement of diabetes was carried out in all the animals by means of injecting intraperitoneal streptozotocin. • The blood sugar indices were compared at 24 and 48 hours of the injection to assess whether the inducement had been successful. • Once diabetes was confirmed, the animals were divided into two groups formed by 8 rats each. • Following the diabetic retinopathy model in rats, diabetes was left to develop naturally in both groups over the first 12 weeks. […]

[1] = tested on: ICAM-1 endothelial marker; test: ICAM-1 endothelial cell count by immunohistochemistry in retina sections, streptozotocin diabetic retinopathy model, after intravitreal injection; assay type: in vivo, Wistar rat; conditions: treated (CASE) diabetic rats
Description: 2. […] ICAM-1 is a transmembrane protein present in the endothelial cells and practically specific to them. Its immunohistochemical staining allows the endothelial cells present in the different layers of examined tissues to be quantitatively indicated and assessed and it gives us information concerning the vascularization of the examined tissues and the integrity of the vascular wall.
(§1) Pursuant to approval of the Bioethics Committee for Research of the University of Miguel Hernandez de Elche and based on the international standards for the use of animal experimentation, […] confined male Wistar rat specimens weighing 200 grams were induced to suffer diabetes by means of injecting intraperitoneal streptozotocin (75 mg/kg) in a single dose. The animals were monitored during the whole study continuously in terms of weight, blood sugar, loss of hair and formation of cataracts. All the animals were exposed to the same parameters of light, darkness and availability of water and food.
(§2) For the intravitreal injection, the animals were anesthetized with a mixture in a proportion of 1:1 of xylazine hydrochloride (4 mg/kg) and ketamine hydrochloride (10 mg/kg). Under mydriasis with 0.5% tropicamide, the intravitreal injection of the lysine acetylsalicylate solution was carried out under a surgical microscope with a micro injection syringe (Hamilton Co., Reno, Nev.) and a 32 gauge needle at 1 millimeter from the temporal limbus. Only half the diabetic animals were treated with the intravitreal solution, the rest of the animals were left to develop diabetic retinopathy naturally. The process of intravitreal injection was repeated in the same way, technique and dose in the same animals 4 weeks after the initial treatment. Summary of the organization of the experimental test: • Initially, the animals were evaluated prior to including them in the experimental test to discard those with defects or basic ocular changes. • The inducement of diabetes was carried out in all the animals by means of injecting intraperitoneal streptozotocin. • The blood sugar indices were compared at 24 and 48 hours of the injection to assess whether the inducement had been successful. • Once diabetes was confirmed, the animals were divided into two groups formed by 8 rats each. • Following the diabetic retinopathy model in rats, diabetes was left to develop naturally in both groups over the first 12 weeks.
Laminar sections of the retina of all the animals were carried out, being exposed to the action of 4% formaldehyde preservatives. […] After fixing the different sections of stained tissue, the positively stained molecules and the amount of blood vessels present were counted under an optical microscope (Leica® microsystem) with 10× magnification. […]

CD18 leucocyte marker = test: CD18 leucocyte count by immunohistochemistry in retina sections, streptozotocin diabetic retinopathy model, after intravitreal injection; assay type: in vivo, Wistar rat; conditions: for CD18 count: treated (CASE) diabetic rats
Description: 1. CD18 leucocyte marker: the leucocyte is the main effector cell of the inflammatory response of the tissues, something which also occurs in the retina. CD18 is a surface molecule which is expressed in the membranes of the leucocytes activated in tissues where there is inflammation, as is the case with the diabetic retina. Determine its absolute and relative number helps to know whether the injected solution is capable of reducing the presence of leucocytes activated in determined layers of the retina as part of their anti-inflammatory action.
as §1, §2
(§3) Laminar sections of the retina of all the animals were carried out, being exposed to the action of 4% formaldehyde preservatives. For the marking of the endothelial cells, an anti-ICAM1 monoclonal antibody was used, we also used anti-CD18 monoclonal antibodies for the staining of the leucocytes. After fixing the different sections of stained tissue, the positively stained molecules and the amount of blood vessels present were counted under an optical microscope (Leica® microsystem) with 10× magnification.
(§4) For the purposes of assessing significant differences between the different regions of the retina, in all the tissues, the cell and vessel counts corresponding to the central retina (between optical nerve and macular area) and those corresponding to the peripheral retina (outside of the vascular arches) were carried out separately. These counts were specifically carried out on two layers of the retina: the external plexiform layer and the ganglion cell layer.
The U Mann-Whitney contrast test was used for independent samples. To contrast the correlation between the variables, the Spearman test was used.

[2] = tested on: blood vessels of the retina; test: Vascular density (blood vessel count per tissue section) in retina, streptozotocin diabetic retinopathy model, after intravitreal injection; assay type: in vivo, Wistar rat; conditions: for VESSELS count: treated (CASE) diabetic rats
Description: 3. Vascular density: the chronic inflammation caused in diabetic retinopathy involves obliteration and death of the blood vessels. […] This scenario is a final stage of the phenomenon known as diabetic microangiopathy. Thus, determining the number of vessels present in each section of tissue can give us information concerning whether or not the medicament is capable of positively or negatively influencing the capillary density of the retina (vessels/portion of tissue).
as §1, §2, §3
as §4, with “layer. […]” for “layer.”

[3] = central retina, external plexiform layer, 25 micrograms intravitreal at weeks 12 and 16, sacrifice week 20
[4] = peripheral retina, external plexiform layer
[5] = peripheral retina, ganglion layer
[6] = treated animals, central retina (text says plexiform layer), range 3-6

## CC(=O)Oc1ccccc1C(=O)O [lysine acetylsalicylate]
retina
  signs of medicament toxicity (de-structuring of retinal layers, absence of photoreceptor cells, histological alterations of optical nerve): No tissues were found to have signs that showed alterations suggesting toxicity
[1]; [3]
  ICAM1 count: 15.0 (14.0-17.5)
[1]; central retina, ganglion layer
  ICAM1 count: 4.0 (3.0-5.0)
[1]; [4]
  ICAM1 count: 9.0 (7.0-11.0)
[1]; [5]
  ICAM1 count: 2.0 (1.3-3.0)
CD18 leucocyte marker; [3]
  CD18 count: 16.5 (14.0-18.0)
CD18 leucocyte marker; central retina, ganglion layer
  CD18 count: 5.0 (3.0-6.0)
CD18 leucocyte marker; [4]
  CD18 count: 8.0 (6.0-9.0)
CD18 leucocyte marker; [5]
  CD18 count: 3.0 (2.0-4.0)
CD18 leucocyte marker; [6]
  CD18 count, average: 5
CD18 leucocyte marker; treated group, central retina, expected at least 10 leucocytes per field
  leucocytes per field relative to number expected from vessel count (regression model): half the leucocytes which would be expected
[2]; [3]
  VESSELS count: 9.0 (7.0-11.0)
[2]; central retina, ganglion layer
  VESSELS count: 5.0 (2.8-6.0)
[2]; [4]
  VESSELS count: 6.0 (5.0-7.0)
[2]; [5]
  VESSELS count: 3.0 (1.8-4.0)
[2]; [6]
  vessels per tissue section, average: 5
